Measurements as given in ChEMBL document CHEMBL2074433, “Specificity of doxorubicin versus rhodamine-123 in assessing P-glycoprotein functionality in the LLC-PK1, LLC-PK1:MDR1 and Caco-2 cell lines” (Eur J Pharm Sci, 2000).

Molecular target: ATP-dependent translocase ABCB1 (Homo sapiens, UniProt P08183)
Experiment: TP_TRANSPORTER: inhibition of Doxorubicin transepithelial transport (basal to apical) (Doxorubicin: 3 uM, Quinidine: 50 uM) in MDR1-expressing LLC-PK1 cells
Type: functional, cell-based
Settings: pig, llc-pk1, 50 µM

Chain of ATP-dependent translocase ABCB1 (P08183 whole entry): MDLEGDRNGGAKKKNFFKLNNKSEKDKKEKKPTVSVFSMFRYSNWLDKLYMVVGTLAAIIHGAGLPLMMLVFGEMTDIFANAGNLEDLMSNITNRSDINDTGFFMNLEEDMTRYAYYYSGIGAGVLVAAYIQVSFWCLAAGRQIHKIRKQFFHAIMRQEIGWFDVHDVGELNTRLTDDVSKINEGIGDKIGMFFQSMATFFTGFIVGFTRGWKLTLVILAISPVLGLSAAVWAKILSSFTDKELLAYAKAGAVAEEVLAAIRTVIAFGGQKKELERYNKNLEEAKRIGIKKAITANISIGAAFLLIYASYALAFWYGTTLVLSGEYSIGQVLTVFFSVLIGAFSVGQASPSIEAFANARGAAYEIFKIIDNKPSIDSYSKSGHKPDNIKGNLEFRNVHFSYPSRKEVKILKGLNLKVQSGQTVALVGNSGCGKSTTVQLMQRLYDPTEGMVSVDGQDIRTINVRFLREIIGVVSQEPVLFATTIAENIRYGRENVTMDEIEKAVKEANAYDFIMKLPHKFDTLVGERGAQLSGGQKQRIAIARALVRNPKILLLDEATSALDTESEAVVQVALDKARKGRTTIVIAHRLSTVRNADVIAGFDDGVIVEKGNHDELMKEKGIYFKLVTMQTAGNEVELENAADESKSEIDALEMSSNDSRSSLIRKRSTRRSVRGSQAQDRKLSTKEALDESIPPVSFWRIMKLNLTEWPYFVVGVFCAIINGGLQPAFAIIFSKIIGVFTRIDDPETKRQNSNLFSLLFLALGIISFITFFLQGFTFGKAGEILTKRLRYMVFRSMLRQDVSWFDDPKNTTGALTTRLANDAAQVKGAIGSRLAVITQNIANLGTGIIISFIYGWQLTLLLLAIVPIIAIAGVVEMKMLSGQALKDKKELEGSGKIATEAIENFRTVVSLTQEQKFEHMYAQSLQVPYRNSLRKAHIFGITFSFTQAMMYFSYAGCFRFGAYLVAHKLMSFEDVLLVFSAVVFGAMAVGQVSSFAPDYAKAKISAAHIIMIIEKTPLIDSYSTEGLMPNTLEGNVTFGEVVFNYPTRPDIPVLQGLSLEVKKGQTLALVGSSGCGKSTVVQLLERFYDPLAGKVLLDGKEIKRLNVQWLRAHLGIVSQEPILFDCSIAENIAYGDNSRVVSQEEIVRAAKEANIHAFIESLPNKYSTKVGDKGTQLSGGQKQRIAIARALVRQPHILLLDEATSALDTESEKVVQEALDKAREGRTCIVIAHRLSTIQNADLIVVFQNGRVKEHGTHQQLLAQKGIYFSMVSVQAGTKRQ

Activity: is not an inhibitor [-]
Structure (SMILES): C=C[C@H]1C[N@@]2CC[C@H]1C[C@H]2[C@H](O)c1ccnc2ccc(OC)cc12 [QUININE]
